Measured values as given in patent publication US9815796B2 (Merck Sharp & Dohme Corp., priority 2013, dated 2017).
Where two headings read alike, the source gives them in different places.

Legend:
Rhesus PDE2A3 = Rhesus PDE2A3 (Macaca mulatta, UniProt B3VTJ2); test: PDE2 fluorescence polarization (IMAP FP) inhibition assay, rhesus enzyme; type: biochemical, rhesus macaque
Method in brief: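 Rhesus PDE2A3 came from lysate of transiently transfected AD293 cells, diluted to give 20% substrate conversion. Substrate was 50 nM FAM-cAMP with 1 uM cGMP activator in Tris pH 7.2/MgCl2 buffer, run 60 min at room temperature over 10-point 3-fold dilutions in 1% DMSO. Read-out was IMAP fluorescence polarization (mP) after ≥1 h binding.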

human PDE2A1 = human PDE2A1 (Homo sapiens (Human), UniProt O00408); test: IMAP FP PDE selectivity panel, human PDE2A1; type: biochemical
human PDE2A1, sequence (O00408 other isoform, or with tags, fused parts or gaps): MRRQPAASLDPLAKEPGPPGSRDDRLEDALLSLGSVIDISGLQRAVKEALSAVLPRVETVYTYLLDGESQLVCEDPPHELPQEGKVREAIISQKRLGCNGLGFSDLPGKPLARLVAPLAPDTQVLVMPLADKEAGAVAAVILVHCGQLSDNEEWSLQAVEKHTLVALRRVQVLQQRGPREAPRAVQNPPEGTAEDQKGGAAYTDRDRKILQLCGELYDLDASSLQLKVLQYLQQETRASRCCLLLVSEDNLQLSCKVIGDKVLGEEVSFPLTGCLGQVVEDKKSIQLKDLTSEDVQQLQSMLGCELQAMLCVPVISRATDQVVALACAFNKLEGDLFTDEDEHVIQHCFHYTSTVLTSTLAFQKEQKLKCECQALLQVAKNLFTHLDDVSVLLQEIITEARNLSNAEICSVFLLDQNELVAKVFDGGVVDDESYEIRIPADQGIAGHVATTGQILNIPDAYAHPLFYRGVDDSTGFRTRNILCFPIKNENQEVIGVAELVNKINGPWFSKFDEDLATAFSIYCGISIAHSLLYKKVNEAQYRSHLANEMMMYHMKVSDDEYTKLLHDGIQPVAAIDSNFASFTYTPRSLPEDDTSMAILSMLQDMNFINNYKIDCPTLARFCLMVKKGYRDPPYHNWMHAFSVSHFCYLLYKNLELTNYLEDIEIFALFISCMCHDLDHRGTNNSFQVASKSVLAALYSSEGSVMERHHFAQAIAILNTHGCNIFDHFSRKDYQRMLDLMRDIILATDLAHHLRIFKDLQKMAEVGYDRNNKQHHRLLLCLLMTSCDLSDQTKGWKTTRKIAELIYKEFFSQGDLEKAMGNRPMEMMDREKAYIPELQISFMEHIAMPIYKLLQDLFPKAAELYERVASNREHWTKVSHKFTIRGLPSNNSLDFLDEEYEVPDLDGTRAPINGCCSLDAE
Method in brief: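 GST-tagged human PDE2A1 expressed in insect cells, run at room temperature for 60 min with 50 nM FAM-cAMP containing 1000 nM cGMP, pH 7.2 Tris/MgCl2 buffer. IMAP fluorescence polarization read after binding step.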

[1] = Rhesus PDE2, Lab A, read-out: Rhesus PDE2 Ki (nM) - Lab A
[2] = Human PDE2, Lab A, read-out: Human PDE2 Ki (nM) - Lab A
[3] = Rhesus PDE2, Lab B, read-out: Rhesus PDE2 Ki (nM) - Lab B
[4] = Human PDE2, Lab B, read-out: Human PDE2 Ki (nM) - Lab B

Rhesus PDE2A3, sequence (B3VTJ2 1-941): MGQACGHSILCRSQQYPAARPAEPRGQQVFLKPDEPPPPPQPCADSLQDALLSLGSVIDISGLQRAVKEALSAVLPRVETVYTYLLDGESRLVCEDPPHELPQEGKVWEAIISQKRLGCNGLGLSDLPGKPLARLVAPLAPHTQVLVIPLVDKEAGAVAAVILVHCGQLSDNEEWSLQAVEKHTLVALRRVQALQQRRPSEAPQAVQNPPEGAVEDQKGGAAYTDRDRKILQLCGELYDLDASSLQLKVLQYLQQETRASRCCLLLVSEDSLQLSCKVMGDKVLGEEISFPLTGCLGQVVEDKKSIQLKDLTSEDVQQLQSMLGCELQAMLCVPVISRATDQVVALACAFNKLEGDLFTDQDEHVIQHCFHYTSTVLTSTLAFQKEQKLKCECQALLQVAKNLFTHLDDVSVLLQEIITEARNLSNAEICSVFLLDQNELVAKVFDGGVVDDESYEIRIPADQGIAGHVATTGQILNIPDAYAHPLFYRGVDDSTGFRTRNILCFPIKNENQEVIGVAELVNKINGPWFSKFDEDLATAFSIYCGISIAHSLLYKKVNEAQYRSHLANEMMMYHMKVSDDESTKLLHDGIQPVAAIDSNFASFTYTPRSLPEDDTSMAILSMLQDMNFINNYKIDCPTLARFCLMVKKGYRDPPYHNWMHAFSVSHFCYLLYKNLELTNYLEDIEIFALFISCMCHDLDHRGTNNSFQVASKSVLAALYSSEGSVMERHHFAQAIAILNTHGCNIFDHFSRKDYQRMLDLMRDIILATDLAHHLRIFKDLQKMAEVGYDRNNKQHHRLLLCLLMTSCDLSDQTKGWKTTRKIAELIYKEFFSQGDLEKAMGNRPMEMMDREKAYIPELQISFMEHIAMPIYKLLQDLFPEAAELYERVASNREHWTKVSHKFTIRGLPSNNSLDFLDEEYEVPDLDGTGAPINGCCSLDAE

Structure (SMILES) | Ki (Rhesus PDE2A3; [1]) [nM] | Ki (human PDE2A1; [2]) [nM] | Ki (Rhesus PDE2A3; [3]) [nM] | Ki (human PDE2A1; [4]) [nM]
C[C@@H](NC(=O)c1cc(=O)[nH]c(C2CC2)n1)c1ccc(OC(F)(F)F)c(F)c1 [Example 296, 2-cyclopropyl-N-{(1R)-1-[3-fluoro-4-(trifluoromethoxy)phenyl]ethyl}-6-oxo-1,6-dihydropyrimidine-4-carboxamide] | 6.3 | 3.1 |  | 
CC(C)[C@@H](NC(=O)c1cc(=O)[nH]c(C2CC2)n1)c1ccc(C(F)(F)F)c(F)c1 [Example 251, 2-cyclopropyl-N-{(1R)-1-[3-fluoro-4-(trifluoromethyl)phenyl]-2-methylpropyl}-6-oxo-1,6-dihydropyrimidine-4-carboxamide] | 2 |  | 4 | 3.6
O=C(NC1(c2ccc(C(F)(F)F)c(F)c2)CC1)c1cc(=O)[nH]c(C2CC2)n1 [Example 202, 2-cyclopropyl-N-{1-[3-fluoro-4-(trifluoromethyl)phenyl]cyclopropyl}-6-oxo-1,6-dihydropyrimidine-4-carboxamide] | 7.3 | 3 |  | 
Cc1nc(C(=O)N[C@@H](c2ccc(C(F)(F)F)cc2)C2CC2)cc(=O)[nH]1 [Example 69, N-{(R)-cyclopropyl[4-(trifluoromethyl)phenyl]methyl}-2-methyl-6-oxo-1,6-dihydropyrimidine-4-carboxamide] | 23 | 18 |  | 
Cc1nc(C(=O)N[C@@H](c2ccc(C(C)(C)C)cc2)C2(C)CC2)cc(=O)[nH]1 [Example 614, N-[(R)-(4-tert-butylphenyl)(1-methylcyclopropyl)methyl]-2-methyl-6-oxo-1,6-dihydropyrimidine-4-carboxamide] |  |  | 20 | 17
CC(NC(=O)c1cc(=O)[nH]c(-c2ccccc2)n1)c1ccc(-n2cncn2)cc1 (centres unmarked) [Example 363, 6-oxo-2-phenyl-N-{1-[4-(1H-1,2,4-triazol-1-yl)phenyl]ethyl}-1,6-dihydropyrimidine-4-carboxamide] | 245 |  | 356 | 354
COc1ccc(Cc2nc(C(=O)N[C@@H](c3ccc(OC(F)(F)F)c(F)c3)C(C)C)cc(=O)[nH]2)cc1 [Example 473, N-{(1R)-1-[3-fluoro-4-(trifluoromethoxy)phenyl]-2-methylpropyl}-2-(4-methoxybenzyl)-6-oxo-1,6-dihydropyrimidine-4-carboxamide] |  |  | 1.1 | 0.86
C[C@@H](NC(=O)c1cc(=O)[nH]cn1)c1ccc(C(F)(F)F)cc1 [Example 8, (R)-6-oxo-N-(1-(4-(trifluoromethyl)phenyl)ethyl)-1,6-dihydropyrimidine-4-carboxamide] | 410 | 334 |  | 
Cc1nc(C(=O)N[C@@H](c2ccc(C3CC3)c(F)c2)C(C)C)cc(=O)[nH]1 [Example 621, N-[(1R)-1-(4-cyclopropyl-3-fluorophenyl)-2-methylpropyl]-2-methyl-6-oxo-1,6-dihydropyrimidine-4-carboxamide] |  |  | 5.1 | 5.2
CC(C)(NC(=O)c1cc(=O)[nH]c(C2CC2)n1)c1ccc(SC(F)(F)F)cc1 [Example 222, 2-cyclopropyl-N-(1-methyl-1-{4-[(trifluoromethyl)sulfanyl]phenyl}ethyl)-6-oxo-1,6-dihydropyrimidine-4-carboxamide] | 89 | 45 |  | 
C[C@@H](NC(=O)c1cc(=O)[nH]c(C2CC2)n1)c1ccc2ccccc2c1 [Example 224, 2-cyclopropyl-N-[(1R)-1-naphthalen-2-ylethyl]-6-oxo-1,6-dihydropyrimidine-4-carboxamide] | 40 | 20 |  | 
CCc1ccc(C(C)NC(=O)c2cc(=O)[nH]c(C)n2)cc1 (centres unmarked) [Example 268, N-[1-(4-ethylphenyl)ethyl]-2-methyl-6-oxo-1,6-dihydropyrimidine-4-carboxamide] | 146 | 83 |  | 
Cc1nc(C(=O)N[C@@H](c2ccc(CC(F)(F)F)cc2)C(C)(C)C)cc(=O)[nH]1 [Example 61, (R)-N-(2,2-dimethyl-1-(4-(2,2,2-trifluoroethyl)phenyl)propyl)-2-methyl-6-oxo-1,6-dihydropyrimidine-4-carboxamide] |  |  | 10 | 8.2
CC[C@@H](NC(=O)c1cc(=O)[nH]c(Cc2ccc(OC)cc2)n1)c1ccc(SC(F)(F)F)cc1 [Example 476, 2-(4-methoxybenzyl)-6-oxo-N-[(1R)-1-{4-[(trifluoromethyl)sulfanyl]phenyl}propyl]-1,6-dihydropyrimidine-4-carboxamide] |  |  | 1.4 | 1.8
COCc1nc(C(=O)N[C@@H](c2ccc(OC(F)(F)F)cc2)C2CC2)cc(=O)[nH]1 [Example 116, N-{(R)-cyclopropyl[4-(trifluoromethoxy)phenyl]methyl}-2-(methoxymethyl)-6-oxo-1,6-dihydropyrimidine-4-carboxamide] | 70 | 16 |  | 
Cc1nc(C(=O)NC(C)(C)c2ccc(SC(F)(F)F)c(F)c2)cc(=O)[nH]1 [Example 259, N-(1-{3-fluoro-4-[(trifluoromethyl)sulfanyl]phenyl}-1-methylethyl)-2-methyl-6-oxo-1,6-dihydropyrimidine-4-carboxamide] | 124 |  | 209 | 179
COc1ccc(Cc2nc(C(=O)N[C@@H](c3ccc(OC(F)(F)F)cc3)C3CC3)cc(=O)[nH]2)cc1 [Example 480, N-{(R)-cyclopropyl[4-(trifluoromethoxy)phenyl]methyl}-2-(4-methoxybenzyl)-6-oxo-1,6-dihydropyrimidine-4-carboxamide] |  |  | 1.9 | 1.9
Cc1nc(C(=O)NC(C(=O)N(C)C)c2ccc(C(F)(F)F)cc2)cc(=O)[nH]1 (centres unmarked) [Example 329, N-{2-(dimethylamino)-2-oxo-1-[4-(trifluoromethyl)phenyl]ethyl}-2-methyl-6-oxo-1,6-dihydropyrimidine-4-carboxamide] | 1420 | 565 |  | 
CC(C)[C@@H](NC(=O)c1cc(=O)[nH]c(-c2ccccc2)n1)c1ccc(SC(F)(F)F)c(F)c1 [Example 407, N-[(1R)-1-{3-fluoro-4-[(trifluoromethyl)sulfanyl]phenyl}-2-methylpropyl]-6-oxo-2-phenyl-1,6-dihydropyrimidine-4-carboxamide] |  |  | 4.5 | 3.6
O=C(NC1(c2ccc(C(F)(F)F)cc2)CC1)c1cc(=O)[nH]c(-c2ncccn2)n1 [Example 284, 6-oxo-N-{1-[4-(trifluoromethyl)phenyl]cyclopropyl}-1,6-dihydro-2,2′-bipyrimidine-4-carboxamide] | 43 | 36 |  | 
COc1ccc(Cc2nc(C(=O)N[C@@H](c3ccc(C(F)(F)F)cc3)C(C)C)cc(=O)[nH]2)cc1F [Example 516, 2-(3-fluoro-4-methoxybenzyl)-N-{(1R)-2-methyl-1-[4-(trifluoromethyl)phenyl]propyl}-6-oxo-1,6-dihydropyrimidine-4-carboxamide] |  |  | 1.6 | 1.5
O=C(NC1(c2ccc(SC(F)(F)F)c(F)c2)CC1)c1cc(=O)[nH]c(-c2ncccn2)n1 [Example 253, N-(1-{3-fluoro-4-[(trifluoromethyl)sulfanyl]phenyl}cyclopropyl)-6-oxo-1,6-dihydro-2,2′-bipyrimidine-4-carboxamide] | 14 | 17 |  | 
Cc1nc(C(=O)N[C@H](C)c2ccc(-c3cccc(F)c3)cc2)cc(=O)[nH]1 [Example 323, N-[(1R)-1-(3′-fluorobiphenyl-4-yl)ethyl]-2-methyl-6-oxo-1,6-dihydropyrimidine-4-carboxamide] | 66 | 50 |  | 
COc1cc(OC(F)(F)F)ccc1C(C)NC(=O)c1cc(=O)[nH]c(C2CC2)n1 (centres unmarked) [Example 230, 2-cyclopropyl-N-{1-[2-methoxy-4-(trifluoromethoxy)phenyl]ethyl}-6-oxo-1,6-dihydropyrimidine-4-carboxamide] | 25 | 11 |  | 
Cc1nc(C(=O)N[C@@H](c2ccc(C(F)(F)F)cc2)C(C)(C)C)cc(=O)[nH]1 [Example 249, N-{(1R)-2,2-dimethyl-1-[4-(trifluoromethyl)phenyl]propyl}-2-methyl-6-oxo-1,6-dihydropyrimidine-4-carboxamide] | 2 |  | 4.3 | 4.1
COc1ccc(Cc2nc(C(=O)N[C@@H](c3ccc(OC(F)(F)F)c(F)c3)C(C)(C)C)cc(=O)[nH]2)cc1F [Example 506, 2-(3-fluoro-4-methoxybenzyl)-N-{(1R)-1-[3-fluoro-4-(trifluoromethoxy)phenyl]-2,2-dimethylpropyl}-6-oxo-1,6-dihydropyrimidine-4-carboxamide] |  |  | 0.92 | 0.8
O=C(N[C@@H](c1ccc(C(F)(F)F)c(F)c1)C1CC1)c1cc(=O)[nH]c(-c2ccccc2)n1 [Example 174, N-{(R)-cyclopropyl[3-fluoro-4-(trifluoromethyl)phenyl]methyl}-6-oxo-2-phenyl-1,6-dihydropyrimidine-4-carboxamide] | 5.7 | 4.5 |  | 
CC[C@@H](NC(=O)c1cc(=O)[nH]c(Cc2ccc(OC)cc2)n1)c1ccc(OC(F)(F)F)c(F)c1 [Example 484, N-{(1R)-1-[3-fluoro-4-(trifluoromethoxy)phenyl]propyl}-2-(4-methoxybenzyl)-6-oxo-1,6-dihydropyrimidine-4-carboxamide] |  |  | 1.3 | 1.4
CC[C@@H](NC(=O)c1cc(=O)[nH]c(Cc2ccc(OC)cc2)n1)c1ccc(SC(F)(F)F)c(F)c1 [Example 477, N-[(1R)-1-{3-fluoro-4-[(trifluoromethyl)sulfanyl]phenyl}propyl]-2-(4-methoxybenzyl)-6-oxo-1,6-dihydropyrimidine-4-carboxamide] |  |  | 1.5 | 1.7
